Experiments:
[1] = target: T1, sorbitol dehydrogenase (SDH) (Ovis aries, UniProt P07846); details: cited from earlier work
T1 sequence (P07846 1-354): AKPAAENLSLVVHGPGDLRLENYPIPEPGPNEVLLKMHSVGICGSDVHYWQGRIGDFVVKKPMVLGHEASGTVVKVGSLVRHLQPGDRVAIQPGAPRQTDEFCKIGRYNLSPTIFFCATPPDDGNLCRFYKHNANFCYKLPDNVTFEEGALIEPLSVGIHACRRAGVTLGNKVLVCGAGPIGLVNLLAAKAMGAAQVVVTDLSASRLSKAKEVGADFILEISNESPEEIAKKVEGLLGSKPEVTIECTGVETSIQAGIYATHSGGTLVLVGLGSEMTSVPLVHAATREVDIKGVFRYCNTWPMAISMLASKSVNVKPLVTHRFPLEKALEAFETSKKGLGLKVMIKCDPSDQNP

[2] = test system: growing plants of several weed species, including clover and pigweed; assay: Container studies, application to growing plants of several weed species (FIG. 3); type: in vivo, white clover and pigweed; details: for effect of application on growing plants: 300 mM total concentration, twice a week for 2 weeks; for rank order of the effect / severity of effect across species: 300 mM; for rank order of the effect: injury and death of growing plants; for severity of effect across species: container studies
Method: FIG. 3 includes images showing the effect of application of selected sugars and polyols twice a week for 2 weeks to white clover (A) and pigweed (B) plants.
(§1) In container studies, fructose, inositol, sorbitol, ribitol, xylitol as well as a ribitol/xylitol solution were applied at 300 mM total concentration to plants including white clover and pigweed. […] Other common sugars like glucose and fructose had no effect. […] Due to the desire for a broad spectrum herbicide that affected both seed germination and plant growth the most, and to keep the most expensive component, ribitol, to a low effective level, we concluded that the 150 mM ribitol/150 mM xylitol formulation (300 mM combined concentration) was the optimum for field tests.

[3] = test system: seed of alfalfa, dandelion and mixed grasses; assay: Seed germination in 300 mM solutions of fructose and polyols (FIG. 1); type: in vivo; details: ribitol/xylitol 150 mM + 150 mM, 8 days of incubation
Method: FIG. 1 includes a chart showing the effect of 300 mM solutions of fructose and polyols, and a 150 mM ribitol plus 150 mM xylitol (R+X) formulation on seed germination. Means±standard deviation are across alfalfa, dandelion and mixed grasses after 8 days of incubation.
Seed of several species were incubated with 300 mM solutions of fructose, inositol, sorbitol, ribitol, xylitol as well as a ribitol/xylitol solution.

dandelion plants = assay: Container studies, spraying of dandelion plants (FIG. 4); type: in vivo; details: 300 mm, ribitol+xylitol each at 150 mM, sprayed twice weekly for 2 weeks
Method: FIG. 4 includes images showing the effect of application of […] fructose, glucose, sorbitol, ribitol, xylitol, or ribitol+xylitol (each at 150 mM) twice weekly for 2 weeks on dandelion plants.
as §1

[4] = test system: sdh-knockout mutant plants and Wild Type plants; details: 50 mM ribitol, cited from earlier work
seed of turfgrass = assay: Turfgrass seed germination in xylitol, ribitol and ribitol/xylitol solutions (FIG. 2A); type: in vivo; details: total concentrations 100 to 300 mM, 10 days
Method: (§2) FIG. 2 includes images of grass (A) and Dutch white clover (B) seed germination after 10 days in solutions of xylitol alone, ribitol alone, and xylitol+ribitol, at total concentrations of 100 to 300 mM (grass) or 100 to 400 mM (clover).
(§3) Seed of turfgrass (FIG. 2A) and Dutch white clover (FIG. 2B) were incubated with solutions of xylitol, ribitol, and a ribitol/xylitol solution at 100 to 300 mM (A) or 100 to 400 mM (B). […] The clover seed was in developmental arrest at 400 mM ribitol and 300 mM ribitol/xylitol.

tomato seeds = assay: Seed germination with ribitol and SDH specific inhibitor (FIG. 8), tomato; type: in vivo; details: 150 mM ribitol, 0.5 mM CP-470711, six days
Method: (§4) FIG. 8 includes images showing the effect of blocking SDH activity with (A) water (B) 150 mM ribitol (C) the SDH-specific inhibitor CP-470711(Pfizer) and (D) ribitol+CP-470711 on sensitivity of seed germination of Wild Type Arabidopsis, tomato, and rice for 6 days.
(§5) The effect of blocking SDH activity with an SDH specific inhibitor was explored with application to wild type Arabidopsis, tomato and rice seeds for six days. […] Each compound alone at the same concentration had no effect.

seed germination = details: when it cannot be metabolized properly; cited from earlier work
[5] = test system: wild type Arabidopsis seeds; assay: Seed germination with ribitol and SDH specific inhibitor (FIG. 8), Arabidopsis; type: in vivo; details: 150 mM ribitol, 0.5 mM CP-470711, six days
Method: as §4, §5

rice seeds = assay: Seed germination with ribitol and SDH specific inhibitor (FIG. 8), rice; type: in vivo; details: 150 mM ribitol, 0.5 mM CP-470711, six days
Method: as §4, §5

[6] = test system: seed germination of numerous plant species; assay: Ribitol toxicity effect on seed germination, numerous plant species; type: in vivo; details: ribitol with no adjuvant
From the text: An increasing number of species have been identified as bearing the SDH gene and activity (Jia et al., […]), so most weed species could likely metabolize it.

[7] = test system: seed of Dutch white clover; assay: Dutch white clover seed germination in xylitol, ribitol and ribitol/xylitol solutions (FIG. 2B); type: in vivo; details: total concentrations 100 to 400 mM, 10 days
Method: as §2, §3

SCc1ccccc1 [1-thio-1-phenylmethane]
SDH inhibition [1]: effective SDH inhibitors

SCCc1ccccc1 [1-thio-2-phenylethane]
SDH inhibition [1]: effective SDH inhibitors

O=C(CO)[C@@H](O)[C@H](O)[C@H](O)CO [fructose, reference compound]
effect of application on growing plants [2]: no effect | inhibition of seed germination [3]: only significantly inhibited by the ribitol/xylitol solution

O[C@H]1[C@H](O)[C@@H](O)[C@H](O)[C@@H](O)[C@H]1O [inositol, reference compound]
inhibition of seed germination [3]: only significantly inhibited by the ribitol/xylitol solution

OC[C@@H](O)[C@@H](O)[C@@H](O)CO [ribitol]
effect on dandelion plants (dandelion plants): death of plants | effect of application on growing plants [2]: caused injury and death | rank order of the effect [2]: sorbitol<xylitol≤ribitol | effect of application on Wild Type plants ([4]; Wild Type plants): no effect | effect of application on sdh-knockout mutant plants ([4]; well-watered sdh-knockout mutant plants): quick injury and eventual death | concentration at which grass seed was significantly inhibited (seed of turfgrass): 300 mM | effect on seed germination (tomato seeds): no effect | effect on seed germination (seed germination): inhibited seed germination | effect on seed germination [5]: no effect | effect on seed germination (rice seeds): no effect | inhibition of seed germination [3]: only significantly inhibited by the ribitol/xylitol solution | ribitol concentration at which toxicity effect on seed germination occurred [6]: ≥ 300 mM | concentration at which clover seed was in developmental arrest [7]: 400 mM

OC[C@@H](O)[C@@H](O)[C@H](O)[C@@H](O)CO [sorbitol]
effect of application on growing plants [2]: caused injury and death | severity of effect across species [2]: caused damage | rank order of the effect [2]: sorbitol<xylitol≤ribitol | inhibition of seed germination [3]: only significantly inhibited by the ribitol/xylitol solution

OC[C@@H](O)[C@H](O)[C@@H](O)CO [xylitol]
effect on dandelion plants (dandelion plants): death of plants | effect of application on growing plants [2]: caused injury and death | severity of effect across species [2]: caused damage | rank order of the effect [2]: sorbitol<xylitol≤ribitol | inhibition of seed germination [3]: only significantly inhibited by the ribitol/xylitol solution
